Literature values in patent US20100092463A1, “Method for treating or preventing osteoporosis by reducing follicle stimulating hormone to cyclic physiological levels in a mammalian subject” (Searete LLC, a limited liability corporation of the State …, priority 2008, published 2010).
Where a SMILES comes first, the peptide text is derived from it. [ ]: non-standard residue; d: D form. d(hArg(Et2)) = CCN=C(NCC)NCCCC[C@@H](N)C(=O)O; hArg(Et2) = CCN=C(NCC)NCCCC[C@H](N)C(=O)O; dPhe(4-Cl) = N[C@H](Cc1ccc(Cl)cc1)C(=O)O; d2Nal = N[C@H](Cc1ccc2ccccc2c1)C(=O)O; dCit = NC(=O)NCCC[C@@H](N)C(=O)O; d3Pal = N[C@H](Cc1cccnc1)C(=O)O

Conditions: most common adverse effects being nausea and headache

Row | Compound | tolerability
1 | CC(=O)N[C@H](Cc1ccc2ccccc2c1)C(=O)N[C@H](Cc1ccc(Cl)cc1)C(=O)N[C@H](Cc1cccnc1)C(=O)N[C@@H](CO)C(=O)N[C@@H](Cc1ccc(O)cc1)C(=O)N[C@H](CCCNC(N)=O)C(=O)N[C@@H](CC(C)C)C(=O)N[C@@H](CCCNC(=N)N)C(=O)N1CCC[C@H]1C(=O)N[C@H](C)C(N)=O [cetrorelix] (Ac-[d2Nal][dPhe(4-Cl)][d3Pal]SY[dCit]LRP[dA]-NH2) | well tolerated
2 | CCN=C(NCC)NCCCC[C@H](NC(=O)[C@H](CC(C)C)NC(=O)[C@@H](CCCCNC(=NCC)NCC)NC(=O)[C@H](Cc1ccc(O)cc1)NC(=O)[C@H](CO)NC(=O)[C@@H](Cc1cccnc1)NC(=O)[C@@H](Cc1ccc(Cl)cc1)NC(=O)[C@@H](Cc1ccc2ccccc2c1)NC(C)=O)C(=O)N1CCC[C@H]1C(=O)N[C@H](C)C(N)=O [ganirelix] (Ac-[d2Nal][dPhe(4-Cl)][d3Pal]SY[d(hArg(Et2))]L[hArg(Et2)]P[dA]-NH2) | well tolerated
